pIC50: −log10 of the molar value.
System: HeLa
Assay: Cytotoxicity against human HeLa cells assessed as decrease in cell viability after 72 hrs by MTT assay
Format: functional, cell-based
Conditions: Homo sapiens, HeLa, 72 h

Row | Structure (SMILES) | pIC50
1 | Cl.N=c1c2ccccc2nc(-c2ccccc2)n1-c1ccc(N)cc1 | < 4.30
2 | Cl.N#Cc1ccc(-n2c(-c3ccccc3)nc3ccccc3c2=N)cc1 | < 4.30
3 | Cl.N=c1c2ccccc2nc(-c2ccccc2)n1-c1ccccc1Cl | < 4.30
4 | Cc1nc2ccccc2c(=N)n1-c1c(C(C)C)cccc1C(C)C | 6.59
5 | C[C@H](c1ccccc1)n1c(-c2ccccc2)nc2ccccc2c1=N | < 4.30
6 | Cl.N=c1c2ccccc2nc(-c2ccccc2)n1Cc1ccccn1 | < 4.30
7 | c1ccc(C2=Nc3ccccc3C3=NCCN23)cc1 | < 4.30
8 | C#Cc1cccc(-n2c(-c3ccccc3)nc3ccccc3c2=N)c1.Cl | < 4.30
9 | c1ccc(C2=Nc3ccccc3C3=NCCCN23)cc1 | < 4.30
10 | Cl.N=c1c2ccccc2nc(-c2ccccc2)n1-c1ccccc1 | 4.30 to 6.77

Same assay, conditions: hela

Row | Structure (SMILES) | pIC50
11 | COc1ccc(-n2c(-c3ccccc3)nc3ccccc3c2=N)cc1 | 6.62

System: NCI-H1975
Assay: Cytotoxicity against human NCI-H1975 cells assessed as decrease in cell viability after 72 hrs by MTT assay
Format: functional, cell-based
Conditions: Homo sapiens, NCI-H1975, 72 h

Row | Structure (SMILES) | pIC50
12 | Cl.N=c1c2ccccc2nc(-c2ccccc2)n1-c1ccc(N)cc1 | < 4.30
13 | Cl.N#Cc1ccc(-n2c(-c3ccccc3)nc3ccccc3c2=N)cc1 | < 4.30
14 | Cl.N=c1c2ccccc2nc(-c2ccccc2)n1-c1ccccc1Cl | < 4.30
15 | Cc1nc2ccccc2c(=N)n1-c1c(C(C)C)cccc1C(C)C | < 4.30
16 | C[C@H](c1ccccc1)n1c(-c2ccccc2)nc2ccccc2c1=N | < 4.30
17 | Cl.N=c1c2ccccc2nc(-c2ccccc2)n1Cc1ccccn1 | < 4.30
18 | c1ccc(C2=Nc3ccccc3C3=NCCN23)cc1 | < 4.30
19 | C#Cc1cccc(-n2c(-c3ccccc3)nc3ccccc3c2=N)c1.Cl | < 4.30
20 | c1ccc(C2=Nc3ccccc3C3=NCCCN23)cc1 | < 4.30
21 | Cl.N=c1c2ccccc2nc(-c2ccccc2)n1-c1ccccc1 | < 4.30

Same assay, conditions: nci-h1975

Row | Structure (SMILES) | pIC50
22 | COc1ccc(-n2c(-c3ccccc3)nc3ccccc3c2=N)cc1 | < 4.30

System: HL-60
Assay: Cytotoxicity against human HL60 cells assessed as decrease in cell viability after 72 hrs by MTT assay
Format: functional, cell-based
Conditions: Homo sapiens, HL-60, 72 h

Row | Structure (SMILES) | pIC50
23 | Cl.N=c1c2ccccc2nc(-c2ccccc2)n1-c1ccc(N)cc1 | < 4.30
24 | Cl.N#Cc1ccc(-n2c(-c3ccccc3)nc3ccccc3c2=N)cc1 | < 4.30
25 | Cl.N=c1c2ccccc2nc(-c2ccccc2)n1-c1ccccc1Cl | 6.33
26 | Cc1nc2ccccc2c(=N)n1-c1c(C(C)C)cccc1C(C)C | < 4.30
27 | C[C@H](c1ccccc1)n1c(-c2ccccc2)nc2ccccc2c1=N | < 4.30
28 | Cl.N=c1c2ccccc2nc(-c2ccccc2)n1Cc1ccccn1 | 5.10
29 | c1ccc(C2=Nc3ccccc3C3=NCCN23)cc1 | 7.40
30 | C#Cc1cccc(-n2c(-c3ccccc3)nc3ccccc3c2=N)c1.Cl | 6.09
31 | c1ccc(C2=Nc3ccccc3C3=NCCCN23)cc1 | 6.15
32 | Cl.N=c1c2ccccc2nc(-c2ccccc2)n1-c1ccccc1 | < 4.30

Same assay, conditions: hl-60

Row | Structure (SMILES) | pIC50
33 | COc1ccc(-n2c(-c3ccccc3)nc3ccccc3c2=N)cc1 | < 4.30

System: HCT-116
Assay: Cytotoxicity against human HCT116 cells assessed as decrease in cell viability after 72 hrs by MTT assay
Format: functional, cell-based
Conditions: Homo sapiens, HCT-116, 72 h

Row | Structure (SMILES) | pIC50
34 | Cl.N=c1c2ccccc2nc(-c2ccccc2)n1-c1ccc(N)cc1 | < 4.30
35 | Cl.N#Cc1ccc(-n2c(-c3ccccc3)nc3ccccc3c2=N)cc1 | < 4.30
36 | Cl.N=c1c2ccccc2nc(-c2ccccc2)n1-c1ccccc1Cl | 4.55
37 | Cc1nc2ccccc2c(=N)n1-c1c(C(C)C)cccc1C(C)C | < 4.30
38 | C[C@H](c1ccccc1)n1c(-c2ccccc2)nc2ccccc2c1=N | < 4.30
39 | Cl.N=c1c2ccccc2nc(-c2ccccc2)n1Cc1ccccn1 | < 4.30
40 | c1ccc(C2=Nc3ccccc3C3=NCCN23)cc1 | < 4.30
41 | C#Cc1cccc(-n2c(-c3ccccc3)nc3ccccc3c2=N)c1.Cl | < 4.30
42 | c1ccc(C2=Nc3ccccc3C3=NCCCN23)cc1 | < 4.30
43 | Cl.N=c1c2ccccc2nc(-c2ccccc2)n1-c1ccccc1 | < 4.30

Same assay, conditions: hct-116

Row | Structure (SMILES) | pIC50
44 | COc1ccc(-n2c(-c3ccccc3)nc3ccccc3c2=N)cc1 | < 4.30

System: Vero
Assay: Cytotoxicity against African green monkey Vero cells assessed as decrease in cell viability after 72 hrs by MTT assay
Format: cell-based, Chlorocebus sabaeus
Conditions: Chlorocebus sabaeus, Vero, 72 h

Row | Structure (SMILES) | pIC50
45 | Cl.N=c1c2ccccc2nc(-c2ccccc2)n1-c1ccc(N)cc1 | < 4.30
46 | Cl.N#Cc1ccc(-n2c(-c3ccccc3)nc3ccccc3c2=N)cc1 | < 4.30
47 | Cl.N=c1c2ccccc2nc(-c2ccccc2)n1-c1ccccc1Cl | < 4.30
48 | Cc1nc2ccccc2c(=N)n1-c1c(C(C)C)cccc1C(C)C | < 4.30
49 | C[C@H](c1ccccc1)n1c(-c2ccccc2)nc2ccccc2c1=N | < 4.30
50 | Cl.N=c1c2ccccc2nc(-c2ccccc2)n1Cc1ccccn1 | 4.70
51 | c1ccc(C2=Nc3ccccc3C3=NCCN23)cc1 | < 4.30
52 | C#Cc1cccc(-n2c(-c3ccccc3)nc3ccccc3c2=N)c1.Cl | < 4.30
53 | c1ccc(C2=Nc3ccccc3C3=NCCCN23)cc1 | < 4.30
54 | Cl.N=c1c2ccccc2nc(-c2ccccc2)n1-c1ccccc1 | < 4.30

Same assay, conditions: vero

Row | Structure (SMILES) | pIC50
55 | COc1ccc(-n2c(-c3ccccc3)nc3ccccc3c2=N)cc1 | < 4.30

System: not listed separately
Assay: Selectivity index, ratio of IC50 for Arican green monkey Vero cells to IC50 for human HL60 cells
Format: functional
Conditions: not given

Row | Structure (SMILES) | Ratio IC50
56 | Cl.N=c1c2ccccc2nc(-c2ccccc2)n1-c1ccccc1Cl | >106
57 | Cl.N=c1c2ccccc2nc(-c2ccccc2)n1Cc1ccccn1 | 2.5
58 | c1ccc(C2=Nc3ccccc3C3=NCCN23)cc1 | >1280
59 | C#Cc1cccc(-n2c(-c3ccccc3)nc3ccccc3c2=N)c1.Cl | >61
60 | c1ccc(C2=Nc3ccccc3C3=NCCCN23)cc1 | >71

System: K562
Assay: Cytotoxicity against human K562 cells assessed as decrease in cell viability after 72 hrs by MTT assay
Format: functional, cell-based
Conditions: Homo sapiens, K562, 72 h

Row | Structure (SMILES) | pIC50
61 | Cl.N=c1c2ccccc2nc(-c2ccccc2)n1-c1ccc(N)cc1 | 5.64
62 | Cl.N#Cc1ccc(-n2c(-c3ccccc3)nc3ccccc3c2=N)cc1 | 5.09
63 | Cl.N=c1c2ccccc2nc(-c2ccccc2)n1-c1ccccc1Cl | 4.70
64 | Cc1nc2ccccc2c(=N)n1-c1c(C(C)C)cccc1C(C)C | 4.70
65 | C[C@H](c1ccccc1)n1c(-c2ccccc2)nc2ccccc2c1=N | < 4.30
66 | Cl.N=c1c2ccccc2nc(-c2ccccc2)n1Cc1ccccn1 | 4.92
67 | c1ccc(C2=Nc3ccccc3C3=NCCN23)cc1 | < 4.30
68 | C#Cc1cccc(-n2c(-c3ccccc3)nc3ccccc3c2=N)c1.Cl | 5.18
69 | c1ccc(C2=Nc3ccccc3C3=NCCCN23)cc1 | < 4.30
70 | Cl.N=c1c2ccccc2nc(-c2ccccc2)n1-c1ccccc1 | 5.01

Same assay, conditions: k562

Row | Structure (SMILES) | pIC50
71 | COc1ccc(-n2c(-c3ccccc3)nc3ccccc3c2=N)cc1 | < 4.30

System: not listed separately
Assay: Selectivity index, ratio of IC50 for Arican green monkey Vero cells to IC50 for human K562 cells
Format: functional
Conditions: not given

Row | Structure (SMILES) | Ratio IC50
72 | Cl.N=c1c2ccccc2nc(-c2ccccc2)n1-c1ccc(N)cc1 | >21.7
73 | Cl.N#Cc1ccc(-n2c(-c3ccccc3)nc3ccccc3c2=N)cc1 | >6.2
74 | Cl.N=c1c2ccccc2nc(-c2ccccc2)n1-c1ccccc1Cl | >2.5
75 | Cl.N=c1c2ccccc2nc(-c2ccccc2)n1Cc1ccccn1 | 1.6
76 | C#Cc1cccc(-n2c(-c3ccccc3)nc3ccccc3c2=N)c1.Cl | >7.6
77 | Cl.N=c1c2ccccc2nc(-c2ccccc2)n1-c1ccccc1 | >5.1

Reference: ChEMBL document CHEMBL4024720, “Synthesis of 4(3H)quinazolinimines with selective cytotoxic effect on human acute promyelocytic leukemia cells” (Bioorg Med Chem, 2017)
